These results are taken from patent publication US20120076859A1, “Targeted Lung Delivery of Citrulline and/or Another Nitric Oxide Precursor and a Method for Treatment of Pulmonary Deficiency of Nitric Oxide in Cystic Fibrosis and Other Pulmonary Diseases” (ACTIVAERO GMBH, priority 2010, published 2012).

In one data set the test system is exhaled nitric oxide. The following applies: inhaled L-arginine; healthy and asthmatic subjects; cited from earlier work.
Data set [1] relates to exhaled nitric oxide / pulmonary function. The note with it: cystic fibrosis patients, cited from earlier work.
The conditions of data set [2]: single oral dose; cystic fibrosis and healthy subjects; cited from earlier work.
The conditions of data set [3]: inhalation of arginine solution; cystic fibrosis patients; cited from earlier work.
Data set [4] has as its system isolated lungs of chronically hypoxic newborn pigs. The note with it: perfusion of isolated lungs; cited from earlier work.
The nature of data set [5]: Storage stability of ready to use formulation in LDPE vials. The format is physicochemical. The note with it: room temperature; LDPE vials covered with aluminum overwrap. The method, then: In alternative, the liquid form of the highly concentrated citrulline or another nitric oxide precursor may also be conveniently supplied as a ready to use formulation stored and supplied in 1 mL “Blow-fill-Seal” vial, made of plastic polyethylene material, such as low density polyethylene (LDPE). The selected material for such ready to use formulation prevents absorption of the active component onto the plastic walls of the vial, which is a common occurrence with other plastic materials. The 1 mL fill volume of the vial provides an exact amount of active component that is safe and efficacious for the patient convenience provided, of course, that the therapeutically effective amount of the active component can be supplied in 1 mL dilution. In the above described type of vials covered with an aluminum overwrap, citrulline or nitric oxide precursors for inhalation are stable for at least 9 months and 12 months, respectively, at room temperature. There is no loss of strength under these conditions. At accelerated conditions where the vials are exposed to a temperature of 40° C. and 75% relative humidity, all formulations for extended shelf-life will be shown to retain their full activity for at least 6 months and preferably or one year.

SMILES strings stand for the structures.

On to `N=C(N)NCCC[C@H](N)C(=O)O` [L-arginine], for which, in the data set with exhaled nitric oxide, the exhaled nitric oxide result is listed as “increased exhaled nitric oxide in a dose-dependent fashion” and the “time of maximum effect on exhaled nitric oxide” value was 60 min. The “plasma amino acid concentration of L-arginine” value in data set [1] (after single inhalation) is “did not change significantly over time”. In addition, in data set [1] (single inhalation), the FEV1 entry is reported as “sustained improvement of FEV1” and the “exhaled nitric oxide concentrations” value is on record as “significantly increasing exhaled nitric oxide concentrations”. In addition, in data set [2], the “plasma L-arginine concentration” value is recorded as “significant increase of plasma L-arginine concentration”. For the same compound, in data set [3], the “adverse effects of inhalation therapy” value was “cough, airway inflammation and severe deterioration of the patients general conditions”. In addition, the nitric oxide production entry in data set [4] is “increase of nitric oxide production”.
Regarding `NC(=O)NCCC[C@H](N)C(=O)O` [citrulline, L-(+)-2-amino-5-ureidovaleric acid], the “stability (shelf-life)” value in data set [5] is reported as “at least 9 months”.
